Patent publication US5981541A, “Substituted heterocycles as anti-tumor agents” (Rutgers, The State University of New Jersey, priority 1997, dated 1999)
Like-named read-outs stand apart in the source and are kept apart here.

Assays:
[1] = molecular target: T1, human topoisomerase I (Homo sapiens, UniProt P11387); experiment: Topo I-mediated DNA cleavage assay; format: biochemical
T1 construct: 15 amino acid fusion from pET-11a vector (N); made in house; host or cells: E. coli BL21(DE3)
T1 sequence (P11387 1-765): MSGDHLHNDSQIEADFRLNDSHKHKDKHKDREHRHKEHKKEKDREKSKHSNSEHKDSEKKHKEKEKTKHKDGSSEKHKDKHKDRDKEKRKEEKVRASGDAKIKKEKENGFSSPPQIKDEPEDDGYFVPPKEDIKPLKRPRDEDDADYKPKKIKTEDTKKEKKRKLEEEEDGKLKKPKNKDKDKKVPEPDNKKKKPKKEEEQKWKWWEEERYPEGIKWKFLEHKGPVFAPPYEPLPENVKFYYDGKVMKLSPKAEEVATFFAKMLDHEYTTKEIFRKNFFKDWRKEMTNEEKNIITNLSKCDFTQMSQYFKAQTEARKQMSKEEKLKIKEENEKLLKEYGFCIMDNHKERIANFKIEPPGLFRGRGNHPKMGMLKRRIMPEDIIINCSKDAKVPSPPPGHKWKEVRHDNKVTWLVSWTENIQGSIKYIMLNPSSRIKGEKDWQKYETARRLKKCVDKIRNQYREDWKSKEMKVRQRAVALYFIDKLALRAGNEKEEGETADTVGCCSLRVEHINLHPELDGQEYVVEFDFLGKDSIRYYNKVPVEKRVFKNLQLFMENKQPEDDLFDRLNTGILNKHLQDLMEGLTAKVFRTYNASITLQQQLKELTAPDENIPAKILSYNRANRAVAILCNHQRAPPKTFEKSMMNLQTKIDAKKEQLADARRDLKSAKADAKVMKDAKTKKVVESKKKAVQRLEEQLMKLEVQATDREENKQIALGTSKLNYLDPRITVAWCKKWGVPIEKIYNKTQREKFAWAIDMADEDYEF
Text: To obtain large quantity of human topoisomerase I, the human topoisomerase I cDNA was cloned into the pET-11a vector, in which transcription of the cDNA is under the control of the inducible T7 promoter (Studier et al., Methods in Enzymol., Vol. 185:60-89, San Diego: Academic Press (1990)). Briefly, a 3.4 kb DNA fragment containing the entire coding sequence of human topoisomerase I and approximately 1 kb of untranslated region downstream of the stop codon was isolated from the plasmid YCpGAL1-hTOP1 (Bjornsti et al., Cancer Res. 49:6318-6323 (1989)) by cutting at the BamHI and EcoRI sites. The vector pET-11a was cut with the same restriction enzymes, dephosphorylated and ligated to the insert in the proper reading frame downstream of the vector cloning site. […] Since the translational start in pET is positioned at an upstream NdeI site, the expressed topoisomerase I has a 15 amino acid fusion at its N-terminus. pET1B was then transformed into E. coli BL21 (DE3), and, upon induction with 0.4 mM IPTG for 1 hour, the bacterial lysate was analyzed by 10% SDS-PAGE. […] Briefly, E. coli cells were lysed by repeated sonic bursts. The sonic extract was made in 1 M NaCl and 6% polyethylene glycol (PEG) to remove nucleic acids. The PEG supernatant was chromatographed directly on a hydroxyapatite column. […] The eluted enzyme was dialyzed against 50% glycerol, 30 mM potassium phosphate (pH 7.0), 1 mM dithiothreitol (DTT) and 0.1 mM EDTA and stored at -20° C.
(§1) Cleavage assays for the recombinant topoisomerases I and calf thymus topoisomerases I and II were done as described (Liu et al., J. Biol. Chem. 258:15365-15370 (1983)). The plasmid YEpG DNA used for the cleavage assays was prepared and labeled at its 3'-end using the published procedures.

[2] = molecular target: T2, calf thymus topoisomerase II (Bos taurus, UniProt F1MDU7); experiment: Topo II-mediated DNA cleavage assay; format: biochemical; conditions: concentration relative to VM26 (= 1) producing the same cleavage on plasmid DNA in the presence of calf thymus topoisomerase II
T2 construct: from tissue; host or cells: calf thymus glands
T2 sequence (F1MDU7 1-1532): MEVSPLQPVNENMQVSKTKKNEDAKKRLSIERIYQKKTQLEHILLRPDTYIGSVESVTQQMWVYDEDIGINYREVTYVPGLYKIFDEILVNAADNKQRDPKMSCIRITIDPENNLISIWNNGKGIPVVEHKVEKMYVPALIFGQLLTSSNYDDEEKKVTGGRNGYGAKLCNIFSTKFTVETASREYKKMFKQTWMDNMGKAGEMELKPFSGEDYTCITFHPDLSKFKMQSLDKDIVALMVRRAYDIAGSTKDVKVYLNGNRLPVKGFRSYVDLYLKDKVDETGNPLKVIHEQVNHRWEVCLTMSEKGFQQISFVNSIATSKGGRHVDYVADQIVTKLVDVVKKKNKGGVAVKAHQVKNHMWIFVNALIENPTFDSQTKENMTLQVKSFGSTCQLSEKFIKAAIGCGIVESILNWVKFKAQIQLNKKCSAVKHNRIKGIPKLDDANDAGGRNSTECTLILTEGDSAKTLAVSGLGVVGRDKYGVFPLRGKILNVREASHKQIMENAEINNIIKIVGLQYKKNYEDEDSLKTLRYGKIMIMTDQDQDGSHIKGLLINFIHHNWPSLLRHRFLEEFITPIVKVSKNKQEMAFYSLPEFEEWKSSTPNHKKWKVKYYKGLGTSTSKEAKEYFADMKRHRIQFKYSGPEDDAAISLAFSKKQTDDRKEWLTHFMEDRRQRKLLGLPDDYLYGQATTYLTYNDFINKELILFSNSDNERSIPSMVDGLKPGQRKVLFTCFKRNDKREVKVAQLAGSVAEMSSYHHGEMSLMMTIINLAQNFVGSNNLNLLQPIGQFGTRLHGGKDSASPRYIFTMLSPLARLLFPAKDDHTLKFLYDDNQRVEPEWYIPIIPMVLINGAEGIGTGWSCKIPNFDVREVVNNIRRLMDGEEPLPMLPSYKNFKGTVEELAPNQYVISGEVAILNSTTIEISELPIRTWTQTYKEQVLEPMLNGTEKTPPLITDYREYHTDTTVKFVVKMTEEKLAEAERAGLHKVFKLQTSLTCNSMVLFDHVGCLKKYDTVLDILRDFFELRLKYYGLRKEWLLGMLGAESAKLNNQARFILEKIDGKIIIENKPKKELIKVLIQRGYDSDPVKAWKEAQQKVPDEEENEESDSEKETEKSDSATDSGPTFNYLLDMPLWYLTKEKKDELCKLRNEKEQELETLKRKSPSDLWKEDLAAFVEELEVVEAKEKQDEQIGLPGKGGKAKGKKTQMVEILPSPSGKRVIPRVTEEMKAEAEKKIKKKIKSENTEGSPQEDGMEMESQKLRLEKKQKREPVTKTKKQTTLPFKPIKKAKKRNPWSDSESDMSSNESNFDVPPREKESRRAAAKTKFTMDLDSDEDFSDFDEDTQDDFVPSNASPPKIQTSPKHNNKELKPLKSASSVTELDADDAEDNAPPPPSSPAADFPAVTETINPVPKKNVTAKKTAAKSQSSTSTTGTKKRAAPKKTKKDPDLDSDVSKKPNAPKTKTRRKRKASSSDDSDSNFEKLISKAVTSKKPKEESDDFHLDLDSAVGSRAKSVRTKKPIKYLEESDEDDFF
Text: The plasmid pET11a and the E. coli strain BL21(DE3) used for enzyme expression were purchased from Novagen. IPTG was purchased from Sigma. The ECL system used for the Western blotting analysis of bacterial lysates was from Amersham (UK). All the restriction enzymes and Vent polymerase were from New England Biolabs. Mammalian topoisomerase II was isolated from calf thymus glands according to the published procedure (Halligan et al., J. Biol. Chem. 260:2475-2482 (1985)). The single copy yeast plasmids YCpGAL1 expressing various topoisomerase I genes in JN2-134 yeast strain were a kind gift of Dr. M-A. Bjornsti (Thomas Jefferson University, Philadelphia, Pa.). All bacterial and yeast media were from Difco (Detroit, Mich.), while cell culture media were purchased from Gibco-BRL (Gaithersburg, Md.).
as §1

[3] = tested on: Human lymphoblast RPMI 8402 cells; experiment: MTT-microtiter plate tetrazolinium cytotoxicity assay (MTA), RPMI 8402; format: cell-based
Procedure: (§2) The IC50 of the drugs tested were determined by the MTT-microtiter plate tetrazolinium cytotoxicity assay (MTA) (Mosmann, T., J. Immunol. Methods 65:55-63 (1983); Denizot et al., J. Immunol. Methods 89:271-277 (1986)). Human lymphoblast RPMI 8402 cells and their camptothecin-resistant CPT-K5 cells (Andoh et al., Proc. Natl. Acad. Sci., USA 84:5565-5569 (1987)) were kindly provided by Dr. Toshiwo Andoh (Aichi Cancer Center Research Institute, Nagoya, Japan). The cell lines A2780 and its camptothecin-resistant derivative CPT-2000 were a generous gift of Dr. Jaulang Hwang (Institute of Molecular Biology, Academia sinica, Taiwan). Cells (2000 cells/well, seeded in […] growth medium) were grown in suspension at 37° C. in 5% CO2 and maintained by regular passage in RPMI medium supplemented with 10% heat inactivated fetal bovine serum, L-glutamine (2 mM), penicillin (100 U/mi), and streptomycin (0.1 mg/ml). The cells were exposed continuously for 4 days to drug concentrations ranging from 100 ug/ml to 1.0 ng/ml in ten fold dilutions, and assayed at the end of the fourth day. Each concentration and the no drug control were repeated at least twice in 6 replica wells. The results were plotted and the IC50 then measured. The drug sensitive human epidermoid carcinoma KB 3-1 cell line and its vinblastine-selected multidrug-resistant variant KB-V1 cells (Akiyama et al., Genetics 11:117-126 (1985)) were kindly provided by Dr. Michael Gottesmann (National Cancer Institute). They were grown as monolayer cultures at 37° C. in 5% CO2 and maintained by regular passage in Dulbecco's minimal essential medium supplemented with 10% heat inactivated fetal bovine serum. KB-V1 cells were maintained in the presence of […] vinblastine.

[4] = tested on: camptothecin-resistant CPT-K5 cells; experiment: MTT-microtiter plate tetrazolinium cytotoxicity assay (MTA), CPT-K5; format: cell-based, human
Procedure: as §2

[5] = concentration relative to camptothecin (CPT = 1) producing the same cleavage on plasmid DNA in the presence of human topoisomerase I
[6] = Homo sapiens, RPMI 8402, 96 h, read-out: Cytotoxicity IC50, RPMI
[7] = Homo sapiens, CPT-K5, 96 h, read-out: Cytotoxicity IC50, CPT-K5

Compound | Topo I-mediated DNA cleavage (REC, Relative Effective Concentration) [1, 5] | Topo II-mediated DNA cleavage (REC, Relative Effective Concentration) [2] | IC50 [3, 6] | IC50 [4, 7] | topoisomerase I poisoning (in words) ([1]; summary statement) | IC50 ([3]; Homo sapiens, 96 h, RPMI 8402 cells, 4 days of continuous drug exposure, read-out: Cytotoxicity IC50, RPMI) | IC50 ([4]; Homo sapiens, 96 h, camptothecin-resistant CPT-K5 cells, 4 days of continuous drug exposure, read-out: Cytotoxicity IC50, CPT-K5) | IC50 ([3]; rpmi 8402 cells, 96 h) | IC50 ([4]; cpt-k5 cells, 96 h) | Topo I-mediated DNA cleavage (REC, Relative Effective Concentration) [1]
COc1cc2c(cc1OC)-c1cc3cc(OC)c(OC)cc3nc1CC2 [Compound 13a, 2,3,9,10-Tetramethoxy-5,6-dihydrobenz[a]acridine] | 100 | > 1000 | 7.1 µM | 7.1 µM |  |  |  |  |  | 
COc1cc2cc3c(nc2cc1OC)CCc1ccc(N)cc1-3 [Compound 20, 2-Amino-9,10-dimethoxy-5,6-dihydrobenz[a]acridine] | 100 | > 1000 | 16.3 µM | > 33 µM |  |  |  |  |  | 
COc1cc2c(cc1OC)-c1cc3cc4c(cc3nc1CC2)OCO4 [Compound 13b, 2,3,-Dimethoxy-9,10-methylenedioxy-5,6-dihydrobenz[a]acridine] | 100 | > 1000 | 9 µM | 14.9 µM |  |  |  |  |  | 
COc1cc2cc3c(nc2cc1OC)CCc1c-3ccc2c1OCO2 [Compound 13e, 5,6-Dihydro-9,10-dimethoxy-3,4-methylenedioxybenz[a]acridine] | 1.0 | > 1000 | 3 µM | 22.4 µM | potent topoisomerase I poisions |  |  |  |  | 
COc1cc2ccc3c(cc4cc(OC)c(OC)cc4[n+]3C)c2cc1OC [Compound 16a, 2,3,9,10-Tetramethoxy-7-methylbenz[a]acridinium methosulfate] | > 1000 | > 1000 |  |  |  | 25.3 µM | 23.2 µM |  |  | 
COc1cc2c(cc1OC)-c1c(c(C)c3cc(OC)c(OC)cc3[n+]1C)CC2 [Compound 8, 2,3,9,10-Tetramethoxy-7,1 2-dimethyl-5,6-dihydrobenz[c]acridinium methosulfate] | > 1000 | > 1000 | 6.1 µM | 12.2 µM |  |  |  |  |  | 
COc1cc2ccc3nc4ccccc4cc3c2cc1OC [Compound 14d, 2,3-Dimethoxy-benz[a]acridine] | 1000 | > 1000 | 10.4 µM | 13.8 µM |  |  |  |  |  | 
COc1cc2cc3c4cc(OC)c(OC)cc4cc[n+]3c(C)c2cc1OC [Coralyne, reference compound] | 1 | > 1000 | 4.9 µM | 20 µM |  |  |  |  |  | 
COc1cc2ccc3c(C)c4cc(OC)c(OC)cc4[n+](C)c3c2cc1OC [Compound 9, 2,3,9,10-Tetramethoxy-7,1 2-dimethylbenz [c]acridinium methosulfate] | > 1000 | > 1000 | 1.2 µM | 1.2 µM |  |  |  |  |  | 
CC[C@@]1(O)C(=O)OCc2c1cc1n(c2=O)Cc2cc3ccccc3nc2-1 [CPT, Camptothecin, reference compound] | 1 | > 1000 | 0.004 µM | > 10 µM |  |  |  |  |  | 
COc1cc2cc3c(nc2cc1OC)CCc1ccccc1-3 [Compound 13c, 9,10-Dimethoxy-5,6-dihydrobenz[a]acridine] | 1000 | > 1000 | 6.9 µM | 6.9 µM |  |  |  |  |  | 
COc1cc2cc3c(ccc4cc(Cl)ccc43)nc2cc1OC [Compound 14j, 3-Chloro-9,10-dimethoxybenz[a]acridine] | 1000 | > 1000 | > 31 µM | > 31 µM |  |  |  |  |  | 
Oc1cc2cc3c(ccc4cc(O)c(O)cc43)nc2cc1O [Compound 14g, 2,3,9,10-tetrahydroxybenz[a]acridine] | 100 | > 1000 | 17.1 µM | > 34 µM |  |  |  |  |  | 
COc1cc2c(cc1OC)-c1cc3ccccc3nc1CC2 [Compound 13d, 2,3-Dimethoxy-5,6-dihydrobenz[a]acridine] | 100 | > 1000 | 1 µM | 8.6 µM |  |  |  |  |  | 
COc1cc2ccc3c(C)c4cc(OC)c(OC)cc4nc3c2cc1OC [Compound 7, 2,3,9,10-Tetramethoxy-7-methylbenz[c]acridine] | > 1000 | > 1000 | 7 µM | 5.5 µM |  |  |  |  |  | 
Methylenedioxy-dihydro-demethyl-coralyne [MDD-Coralyne, reference compound] | 0.1 |  |  |  |  |  |  | 8.1 µM | 27 µM | 
COc1cc(C2c3cc4c(cc3C(OC3OC5COC(c6cccs6)OC5C(O)C3O)C3COC(=O)C23)OCO4)cc(OC)c1O (stereo not shown) [VM-26, reference compound] |  |  | 0.3 µM | 0.5 µM |  |  |  |  |  | > 1000
